Data as given in patent US20240041042A1, “1-(PYRIDYL)-5-AZINYLPYRAZOLE DERIVATIVES, AND THEIR USE FOR CONTROL OF UNDESIRED PLANT GROWTH” (Bayer Aktiengesellschaft, priority 2020, published 2024).
Like-named read-outs stand apart in the source and are kept apart here.

Legend:
Assay type in all cases: in vivo
Zea mays (ZEAMX) [1] = settings: crop plant compatibility, effect vs untreated controls
Procedure, shortened: (§1)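 Greenhouse crops in sandy loam sprayed post-emergence at the one-leaf stage, 2–3 weeks after sowing, with WP or EC formulations in water plus 0.5% additive at 600 l/ha. Damage rated visually about 3 weeks later versus untreated controls (0% = like control, 100% = dead); suffixes a–c denote different doses.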

Oryza sativa (ORYSA) [2] = settings: crop plant compatibility, effect in comparison to untreated controls
Procedure, shortened: as §1

[3] = system: Triticum aestivum (TRZAS); settings: crop plant compatibility, 80 g/ha, effect vs untreated controls
Procedure, shortened: as §1

Zea mays (ZEAMX) [4] = settings: pre-emergence, 80 g/ha, crop plant compatibility, in comparison to untreated controls
Procedure, shortened: (§2)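 Scoring: visual, % of untreated control, about 3 weeks after a pre-emergence application to the soil surface. Application used WP or EC formulations diluted in water with 0.5% additive at 600 l/ha; dosage levels are marked by suffixes a, b and c.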

Oryza sativa (ORYSA) [5] = settings: pre-emergence, crop plant compatibility, in comparison to untreated controls
Procedure, shortened: as §2

Glycine max (GLXMA) = settings: pre-emergence, 80 g/ha, crop plant compatibility, in comparison to untreated controls
Procedure, shortened: as §2

[6] = system: Amaranthus retroflexus (AMARE); assay: Post-emergence herbicidal action against AMARE; settings: 320 g/ha, visual rating about 3 weeks after treatment
Procedure, shortened: (§3)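 Rates were 320 g/ha or below, applied as aqueous WP/EC spray with 0.5% additive (600 l/ha) onto one-leaf-stage plants. About 3 weeks later in the greenhouse, damage was scored visually against untreated plants on a 0–100% scale, where 100% means plants died.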

[7] = system: Amaranthus retroflexus (AMARE); assay: Pre-emergence herbicidal action against AMARE; settings: 320 g/ha, visual scoring after about 3 weeks vs untreated controls
Procedure, shortened: (§4)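 Greenhouse pot trial: seeds sown, soil-covered, sprayed before emergence with compound in water (0.5% additive; 600 l/ha; ≤320 g/ha). Scoring visual, ~3 weeks, 0–100% scale vs untreated.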

Viola tricolor (VIOTR) [8] = assay: Post-emergence herbicidal action against VIOTR
Procedure, shortened: as §3

[9] = system: Digitaria sanguinalis (DIGSA); assay: Pre-emergence herbicidal action against DIGSA
Procedure, shortened: as §4

[10] = system: Alopecurus myosuroides (ALOMY); assay: Post-emergence herbicidal action against ALOMY; settings: 320 g/ha, visual rating about 3 weeks after treatment vs untreated controls (100% = plants have died, 0% = like control plants)
Procedure, shortened: as §3

[11] = system: Polygonum convolvulus (POLCO); assay: Post-emergence herbicidal action against POLCO; settings: dosage 320 g/ha
Procedure, shortened: as §3

[12] = system: Alopecurus myosuroides (ALOMY); assay: Pre-emergence herbicidal action against ALOMY; settings: 320 g/ha; scored visually after about 3 weeks; 100% = plants have died
Procedure, shortened: as §4

Lolium rigidum (LOLRI) [13] = assay: Post-emergence herbicidal action against LOLRI
Procedure, shortened: as §3

[14] = system: Pharbitis purpurea (PHBPU); assay: Post-emergence herbicidal action against PHBPU; settings: dosage 320 g/ha
Procedure, shortened: as §3

Lolium rigidum (LOLRI) [15] = assay: Pre-emergence herbicidal action against LOLRI
Procedure, shortened: as §4

[16] = system: Polygonum convolvulus (POLCO); assay: Pre-emergence herbicidal action against POLCO; settings: dosage 320 g/ha
Procedure, shortened: as §4

[17] = system: Echinochloa crus-galli (ECHCG); assay: Post-emergence herbicidal action against ECHCG
Procedure, shortened: as §3

Viola tricolor (VIOTR) [18] = assay: Pre-emergence herbicidal action against VIOTR
Procedure, shortened: as §4

[19] = system: Digitaria sanguinalis (DIGSA); assay: Post-emergence herbicidal action against DIGSA; settings: 320 g/ha, visual rating about 3 weeks after treatment
Procedure, shortened: as §3

[20] = system: Verconica persica (VERPE); assay: Pre-emergence herbicidal action against VERPE; settings: dosage 320 g/ha
Procedure, shortened: as §4

[21] = system: Matricaria inodora (MATIN); assay: Pre-emergence herbicidal action against MATIN; settings: dosage 320 g/ha
Procedure, shortened: as §4

Setaria viridis (SETVI) [22] = assay: Pre-emergence herbicidal action against SETVI
Procedure, shortened: as §4

[23] = system: Echinochloa crus-galli (ECHCG); assay: Pre-emergence herbicidal action against ECHCG
Procedure, shortened: as §4

Avena fatua (AVEFA) [24] = assay: Post-emergence herbicidal action against AVEFA; settings: visual rating about 3 weeks after treatment
Procedure, shortened: as §3

Avena fatua (AVEFA) [25] = assay: Pre-emergence herbicidal action against AVEFA; settings: 320 g/ha, visual scoring after about 3 weeks vs untreated controls
Procedure, shortened: as §4

[26] = system: Verconica persica (VERPE); assay: Post-emergence herbicidal action against VERPE
Procedure, shortened: as §3

[27] = system: Matricaria inodora (MATIN); assay: Post-emergence herbicidal action against MATIN; settings: dosage 320 g/ha
Procedure, shortened: as §3

Setaria viridis (SETVI) [28] = assay: Post-emergence herbicidal action against SETVI
Procedure, shortened: as §3

C[C@H](NC(=O)COc1nn(-c2ccnc(F)c2)c(-c2ccc(F)nc2)c1Br)C(=O)O [III-25]
Post-emergence action against ZEAMX in % (Zea mays (ZEAMX) [1]; 80 g/ha): 0%
Post-emergence action against ZEAMX in % (Zea mays (ZEAMX) [1]; 320 g/ha): 0%
Post-emergence action against ORYSA in % (Oryza sativa (ORYSA) [2]; 80 g/ha): 0%
Post-emergence action against ORYSA in % (Oryza sativa (ORYSA) [2]; 320 g/ha): 0%
Post-emergence action against TRZAS in % [3]: 0%
Pre-emergence action against ZEAMX in % (Zea mays (ZEAMX) [4]): 20%
Pre-emergence action against ORYSA in % (Oryza sativa (ORYSA) [5]; 80 g/ha): 0%
Pre-emergence action against ORYSA in % (Oryza sativa (ORYSA) [5]; 320 g/ha): 0%
Pre-emergence action against GLXMA in % (Glycine max (GLXMA)): 0%
Post-emergence action against AMARE in % [6]: 80%
Pre-emergence action against AMARE in % [7]: 80%

C[C@@H](Oc1nn(-c2ccccn2)c(-c2ccc(Cl)nc2)c1Cl)C(=O)O [Example I-238]
Post-emergence action against VIOTR in % (Viola tricolor (VIOTR) [8]; 320 g/ha): 80%
Pre-emergence action against DIGSA in % ([9]; dosage 320 g/ha): 90%
Post-emergence action against ZEAMX in % (Zea mays (ZEAMX) [1]; 80 g/ha): 10%
Post-emergence action against ORYSA in % (Oryza sativa (ORYSA) [2]; 80 g/ha): 0%
Post-emergence action against ORYSA in % (Oryza sativa (ORYSA) [2]; 320 g/ha): 10%
Post-emergence action against ALOMY in % [10]: 80%
Post-emergence action against POLCO in % [11]: 80%
Pre-emergence action against ALOMY [12]: 90%
Pre-emergence action against GLXMA in % (Glycine max (GLXMA)): 20%
Post-emergence action against LOLRI in % (Lolium rigidum (LOLRI) [13]; dosage 320 g/ha): 80%
Post-emergence action against PHBPU in % [14]: 80%
Pre-emergence action against LOLRI in % (Lolium rigidum (LOLRI) [15]; dosage 320 g/ha): 90%
Post-emergence action against AMARE in % [6]: 80%
Pre-emergence action against POLCO in % [16]: 80%
Post-emergence action against ECHCG in % ([17]; dosage 320 g/ha): 80%
Pre-emergence action against AMARE in % [7]: 80%
Pre-emergence action against VIOTR in % (Viola tricolor (VIOTR) [18]; 320 g/ha, Viola tricolor): 90%

COC(=O)[C@@H](C)Oc1nn(-c2nc(F)ccc2F)c(-c2ccc(F)nc2)c1C1CC1 [Example I-298]
Post-emergence action against DIGSA in % [19]: 80%
Post-emergence action against VIOTR in % (Viola tricolor (VIOTR) [8]; 80 g/ha): 80%
Post-emergence action against VIOTR in % (Viola tricolor (VIOTR) [8]; 320 g/ha): 90%
Pre-emergence action against DIGSA in % ([9]; 80 g/ha, visual scoring after about 3 weeks vs untreated controls): 100%
Pre-emergence action against DIGSA in % ([9]; dosage 320 g/ha): 100%
Pre-emergence action against VERPE in % [20]: 100%
Pre-emergence action against MATIN in % [21]: 90%
Pre-emergence action against SETVI in % (Setaria viridis (SETVI) [22]; dosage 80 g/ha): 100%
Pre-emergence action against SETVI in % (Setaria viridis (SETVI) [22]; dosage 320 g/ha): 100%
Pre-emergence action against ECHCG in % ([23]; dosage 80 g/ha): 90%
Pre-emergence action against ECHCG in % ([23]; dosage 320 g/ha): 100%
Post-emergence action against ORYSA in % (Oryza sativa (ORYSA) [2]; 80 g/ha): 20%
Post-emergence action against ALOMY in % [10]: 90%
Post-emergence action against POLCO in % [11]: 80%
Pre-emergence action against ALOMY [12]: 90%
Pre-emergence action against GLXMA in % (Glycine max (GLXMA)): 20%
Post-emergence action against LOLRI in % (Lolium rigidum (LOLRI) [13]; dosage 80 g/ha): 90%
Post-emergence action against LOLRI in % (Lolium rigidum (LOLRI) [13]; dosage 320 g/ha): 90%
Post-emergence action against PHBPU in % [14]: 90%
Pre-emergence action against LOLRI in % (Lolium rigidum (LOLRI) [15]; dosage 80 g/ha): 90%
Pre-emergence action against LOLRI in % (Lolium rigidum (LOLRI) [15]; dosage 320 g/ha): 100%
Post-emergence action against AVEFA in % (Avena fatua (AVEFA) [24]; 80 g/ha): 80%
Post-emergence action against AVEFA in % (Avena fatua (AVEFA) [24]; 320 g/ha): 90%
Pre-emergence action against AVEFA in % (Avena fatua (AVEFA) [25]): 90%
Post-emergence action against VERPE in % ([26]; 320 g/ha, VERPE): 80%
Post-emergence action against VERPE in % ([26]; dosage 80 g/ha): 80%
Post-emergence action against AMARE in % [6]: 80%
Post-emergence action against MATIN in % [27]: 80%
Post-emergence action against SETVI in % (Setaria viridis (SETVI) [28]; dosage 80 g/ha): 90%
Post-emergence action against SETVI in % (Setaria viridis (SETVI) [28]; dosage 320 g/ha): 90%
Post-emergence action against ECHCG in % ([17]; dosage 80 g/ha): 80%
Post-emergence action against ECHCG in % ([17]; dosage 320 g/ha): 90%
Pre-emergence action against AMARE in % [7]: 100%
Pre-emergence action against VIOTR in % (Viola tricolor (VIOTR) [18]; 320 g/ha, Viola tricolor): 100%
Pre-emergence action against VIOTR in % (Viola tricolor (VIOTR) [18]; dosage 80 g/ha): 100%

CC(C)C(Oc1nn(-c2ccccn2)c(-c2ccc(F)nc2)c1Br)C(=O)O (centres unmarked) [Example I-347]
Post-emergence action against DIGSA in % [19]: 80%
Post-emergence action against VIOTR in % (Viola tricolor (VIOTR) [8]; 80 g/ha): 80%
Post-emergence action against VIOTR in % (Viola tricolor (VIOTR) [8]; 320 g/ha): 80%
Pre-emergence action against DIGSA in % ([9]; dosage 320 g/ha): 90%
Pre-emergence action against MATIN in % [21]: 80%
Pre-emergence action against SETVI in % (Setaria viridis (SETVI) [22]; dosage 320 g/ha): 80%
Post-emergence action against ZEAMX in % (Zea mays (ZEAMX) [1]; 80 g/ha): 20%
Post-emergence action against ORYSA in % (Oryza sativa (ORYSA) [2]; 80 g/ha): 0%
Post-emergence action against ORYSA in % (Oryza sativa (ORYSA) [2]; 320 g/ha): 0%
Post-emergence action against ALOMY in % [10]: 80%
Post-emergence action against POLCO in % [11]: 80%
Pre-emergence action against ALOMY [12]: 80%
Pre-emergence action against GLXMA in % (Glycine max (GLXMA)): 10%
Pre-emergence action against POLCO in % [16]: 80%
Post-emergence action against ECHCG in % ([17]; dosage 320 g/ha): 80%
Pre-emergence action against VIOTR in % (Viola tricolor (VIOTR) [18]; 320 g/ha, Viola tricolor): 100%
Pre-emergence action against VIOTR in % (Viola tricolor (VIOTR) [18]; dosage 80 g/ha): 90%
